Like-named read-outs stand apart in the source and are kept apart here.
Pramipexole Pamoate [Example 8]
crystalline form conversion (upon standing at room temperature after 7 days): started converting into the crystalline form depicted in Example 7

Pramipexole Pamoate [Example 9]
crystalline form conversion (placed in the dry box at room temperature): converting into amorphous state

— patent US11234961B2, “Pamoate salt of monoamine anti-Parkinson's agents, method of preparation and use thereof” (priority 2017, dated 2022)
